Patent US20260108465A1 (Belhaven BioPharma Inc., priority 2024, published 2026)
Where two headings read alike, the source gives them in different places.

Conditions: human, in vivo; for mean AUC0-363: im
Method: Twelve human subjects participated in the open-label, single sequence crossover study. […] The subjects returned for a safety follow up visit 3 to 5 days after the final treatment. […] Nor did the subject participate in Treatment D.
The dry powder formulation was administered via intranasal instillation once using a nasal device (APTAR). The IM solution and materials were supplied by the study site and prepared according to the local procedures. The study drug was administered at approximately the same time on each treatment day. There was a washout period of 20 days between the nasal doses administered as treatment A and treatment D. The subjects were admitted to the clinical site the day before each treatment administration and remained on site until at least 8 hours post-dose, or when applicable, until 24 hours post-dose of the specific treatment period. The study drug was administered after at least a 10 hour fast. A standardized meal was provided approximately 4 hours after dosing.
Blood samples were collected prior to dosing at 60, 30, and 0 minutes before dosing, and after dosing at 2, 5, 7, 10, 15, 20, 25, 30, 45, 60, 90, 120, 180, 240, and 360 minutes. Vital signs, ECGs, and cardiac telemetry were obtained throughout the treatment period. […] The calibration curve range of the bioanalytical method was from 10 to 10000 pg/mL.
Noncompartmental analysis was performed on individual human subject plasma concentration-time data using nominal doses and actual blood sampling times. […] Baseline correction was accomplished using the average of the measured concentrations at nominal times of −60, −30, and 0 minutes before dosing.
Pharmacokinetic analyses were performed using the standard PK analysis software package PHOENIX® WinNonlin version 8.4.

## CNC[C@H](O)c1ccc(O)c(O)c1 [Epinephrine IM, epinephrine]
  time of the second IM Cmax after dosing: approximately 45 minutes
0.3 mg
  mean AUC0-363: 18790 pg·min/mL
0.5 mg
  mean AUC0-363: 35890 pg·min/mL
